Test results from patent publication US7781565B2 (priority 2006, dated 2010).

system: NCI-60 cell lines; type: cell-based, human

| Substance | Cell Line the peptide is associated with (peptide recovered from phage library selection on this NCI-60 cell line) | Cell Line (NCI-60 cell line the peptide is associated with) | Cell Line (NCI-60 cell line the peptide and its motif are associated with) | Cell Line with which the peptide (and its tripeptide motif) is associated |
| --- | --- | --- | --- | --- |
| VRLRAVF | TK-10 Renal | – | – | – |
| YSGSSDF | – | COLO-205-Colon | – | – |
| AGGWWVG | – | HCT-15 Colon | – | – |
| DRGLGMS | – | – | 786-0 Renal | – |
| LPRRAVF | – | – | DU-145 Prostate | – |
| GSGRQLP | BT-549 Breast | – | – | – |
| VRASSKR | – | – | OVCAR-5 Ovarian | – |
| IAASYRG | – | LOX-IMVI Melanoma | – | – |
| LRFRRGV | – | – | PC3 Prostate | – |
| SVSRGRV | A498 Renal | – | – | – |
| LAGMRGS | – | – | UACC62 Melanoma | – |
| GLEGSGG | – | – | – | H23-Lung |
| GAHGLVR | – | – | – | SR Leukemia |
| YVGGRLR | – | – | OVCAR-5 Ovarian | – |
| MRGVARK | – | – | A498 Renal | – |
| LSSGLVS | – | – | – | H460-Lung |
| GLSRGVL | ACHN Renal | – | – | – |
| WGSSAVK | – | – | IGROV1 Ovarian | – |
| FPARGED | A498 Renal | – | – | – |
| ARRGSGL | – | MALME-3M Melanoma | MALME-3M Melanoma | – |
| FVGSRGV | – | LOX-IMVI Melanoma | – | – |
| FGVSGGS | MDA-MB-231 Breast | – | – | – |

| Substance | Cell Line the peptide is associated with (peptide recovered from phage library selection on this NCI-60 cell line) | Cell Line (NCI-60 cell line the peptide is associated with) | Cell Line (NCI-60 cell line the peptide and its motif are associated with) | Cell Line with which the peptide (and its tripeptide motif) is associated |
| --- | --- | --- | --- | --- |
| RQTTGAV | – | – | – | K-562-Leukemia |
| IFGAGLR | – | LOX-IMVI Melanoma | – | – |
| GTHSGLR | – | – | SK-MEL-2 Melanoma | – |
| VEEGRLR | – | SW620-Colon | – | – |
| NYGSSFH | – | – | – | Hop-62-Lung |
| SSGGVLG | – | – | – | H460-Lung |
| GWGGGSA | – | MALME-3M Melanoma | – | – |
| SRYGVLV | – | – | – | EKVX-Lung |
| LRSSGAT | – | – | – | H322-Lung |
| LVRASNG | – | – | SK-MEL-28 Melanoma | – |
| GRSSVSD | – | – | OVCAR-8 Ovarian | – |
| SLRSDGA | – | HCT-15 Colon | – | – |
| SRLSYRG | – | – | – | RPMI-8226-Leukemia |
| GRLYLGI | – | SF-295 CNS | – | – |
| ARRGLGL | – | SNB-75 CNS | – | – |
| GGGRSGV | – | – | – | H226-Lung |
| GGGSWLI | – | – | – | EKVX-Lung |
| IGRLLPL | – | – | – | HL-60-Leukemia |
| GLRKAGF | – | – | – | SR Leukemia |
| LLRAGVR | UO31 Renal | – | – | – |
| NSQRSSV | – | – | UACC 257 Melanoma | – |
| TATGGLL | – | – | OVCAR-8 Ovarian | – |

| Substance | Cell Line the peptide is associated with (peptide recovered from phage library selection on this NCI-60 cell line) | Cell Line (NCI-60 cell line the peptide is associated with) | Cell Line (NCI-60 cell line the peptide and its motif are associated with) | Cell Line with which the peptide (and its tripeptide motif) is associated |
| --- | --- | --- | --- | --- |
| ADIGAGG | – | – | – | HL-60-Leukemia |
| FLHMRLS | – | – | M14 Melanoma | – |
| LGGRADF | – | – | – | CCRF-CEM Leukemia |
| AFFMGLR | ACHN Renal | – | – | – |
| LRSMAVM | ACHN Renal | – | – | – |
| IGAASWF | MCF-7 Breast | – | – | – |
| GAGSGRT | HS 578 T Breast | – | – | – |
| RLRSYVA | – | – | 786-0 Renal | – |
| AVSLAWQ | T-47D Breast | – | – | – |
| PRGGRVA | – | – | – | Hop-92-Lung |
| RGVNYRS | RXF393 Renal | – | – | – |
| RSSIDVG | NCI/ADR-RES Breast | – | – | – |
| LRGSYVL | – | SW620-Colon | – | – |
| GWSASLG | – | HCT-116 Colon | – | – |
| SVLGSSL | – | – | – | H460-Lung |
| ARLRASR | – | – | PC3 Prostate | – |
| GPSSMTF | – | COLO-205-Colon | – | – |
| WGSGRGN | – | – | – | HL-60-Leukemia |
| LLLRSGG | – | – | – | RPMI-8226-Leukemia |
| AGSQSWE | – | – | – | A549-Lung |
| TIPAGGG | MDA-MB-231 Breast | – | – | – |
| GTPAVSY | NCI/ADR-RES Breast | – | – | – |
